Article PMC9479156 (Frontiers in Pharmacology, 2022)
Read-outs that look alike come from different tables or passages of the source. Marks after values point to notes of the source that are not given here.

Columns and labels:
[1] = tested on: asexual blood stage P. falciparum NF54 (drug sensitive); parameters: method as in Coertzen et al., 2018; Wong et al., 2019; settings: SYBR Green I, mean ± SEM, ref Coertzen et al., 2018, Wong et al., 2019; cited from earlier work
[2] = tested on: asexual blood stage P. falciparum K1 (multidrug resistant); settings: ref Coertzen et al., 2018, Wong et al., 2019, cited from earlier work
tumour cell lines = tested on: tumour cell lines; parameters: method as in earlier work; settings: range over cell lines; ref Gravett et al., 2011; Hooft van Huijsduijnen et al., 2013; Dwivedi et al., 2015; Wu et al., 2018; Wong et al., 2020; read-out: IC50 against tumour cell lines; cited from earlier work
[3] = tested on: immature stage II-III P. falciparum NF54 gametocytes; parameters: method as in Coertzen et al., 2018, Wong et al., 2019; settings: ref Coertzen et al., 2018, Wong et al., 2019, cited from earlier work
[4] = tested on: asexual blood stage P. falciparum W2 (multidrug resistant); parameters: method as in Coertzen et al., 2018; Wong et al., 2019; settings: ref Coertzen et al., 2018, Wong et al., 2019, cited from earlier work
[5] = tested on: asexual blood stage P. falciparum K1 (multidrug resistant); assay: SYBR Green I proliferation assay, asexual blood stage Pf K1; type: cell-based, Plasmodium falciparum
Experimental: (§1) In vitro cultivation of asexual and gametocyte P. falciparum parasites: P. falciparum asexual blood stage parasites were cultivated in human erythrocytes in RPMI-1640 media supplemented with AlbuMax II under sterile conditions and in a hypoxic environment (90% N2, 5% CO2, and 5% O2) at 37°C as described previously ([Coertzen et al., 2018]; [Wong et al., 2019]). Gametocytes were produced from asexual blood stage parasites in a stage-specific manner through induction of cellular stress as described previously ([Reader et al., 2015]; [Coertzen et al., 2018]; [Wong et al., 2019]; [Reader et al., 2022]).
(§2) DHA, artesunate, artemether, chloroquine (CQ), and methylene blue (MB) were used as reference drugs. […] Dose-responses were determined using a 2-fold serial drug dilution on in vitro 95% ring-stage intraerythrocytic Pf parasites (1% parasitemia, 1% hematocrit) at 37°C under 90% N2, 5% CO2, and 5% O2 atmospheric conditions, detecting SYBR green I fluorescence as a marker for parasite proliferation following a 96 h drug treatment ([Smilkstein et al., 2004]; [Verlinden et al., 2011]). Activity against the Pf drug-sensitive NF54 strain and the multi drug-resistant K1 (resistant to CQ, quinine, pyrimethamine, and cycloguanil), and W2 (resistant to CQ, quinine, pyrimethamine, and cycloguanil) strains was evaluated. […]

[6] = tested on: late stage IV-V P. falciparum NF54 gametocytes; assay: Luciferase reporter gametocytocidal assay, late stage gametocytes; type: cell-based, Plasmodium falciparum; settings: for IC50: Plasmodium falciparum; for Fold change preference ratio LG to EG: late vs immature stage gametocytes
Experimental: as §1
Untreated and 5 μM MB-treated immature and late-stage gametocytes were included as positive and negative controls. MB and artemisone were included as internal reference standards. In all cases, an interference assay to eliminate false positives from possible compound interference with the luciferase readout was run in parallel. Unless otherwise indicated, data are from technical triplicates, performed for three biological replicates. Complete dose-response curves are given in the (Supplementary Figures S2A,B).
(§3) Stage-specific activities of celastrol against immature (stage II-III) and late stage (stage IV-V) gametocytes were determined with the luc reporter line as described previously ([Coertzen et al., 2018]; [Wong et al., 2019]). Also included in Table 2 for direct comparison of activities with celastrol are gametocytocidal data for MB, artemisone and the artemisinin derivatives recorded previously ([Coertzen et al., 2018]; [Wong et al., 2019]).

[7] = tested on: multidrug resistant Pf K1 strain; settings: tritiated hypoxanthine assay; ref Figueiredo et al., 1998; Li et al., 2019; cited from earlier work
[8] = tested on: chloroquine sensitive Pf NF54 strain; settings: tritiated hypoxanthine assay; ref Figueiredo et al., 1998; Li et al., 2019; cited from earlier work
[9] = tested on: immature stage II-III P. falciparum NF54 gametocytes; assay: Luciferase reporter gametocytocidal assay, immature gametocytes; type: cell-based, Plasmodium falciparum; settings: this study
Experimental: as §1
Untreated and 5 μM MB-treated immature and late-stage gametocytes were included as positive and negative controls. MB and artemisone were included as internal reference standards. In all cases, an interference assay to eliminate false positives from possible compound interference with the luciferase readout was run in parallel. […]
as §3

[10] = tested on: asexual blood stage P. falciparum W2 (multidrug resistant); assay: SYBR Green I proliferation assay, asexual blood stage Pf W2; type: cell-based, Plasmodium falciparum
Experimental: as §1, §2

[11] = asexual blood stage, SYBR Green I, mean ± SEM
[12] = immature vs late stage gametocytes

| SMILES | IC50 [1] [nM] | IC50 [2, 11] [nM] | RI (resistance index) = IC50 K1/IC50 NF54 [2] | IC50 (tumour cell lines) [nM] | IC50 ([3]; NF54 gametocytes, luciferase, 48 h, mean ± SEM, read-out: Immature stage II-III (luc 48 h) IC50) [nM] | Fold change preference ratio EG to LG [3, 12] | IC50 [4, 11] [nM] | RI = IC50 W2/IC50 NF54 [4] | IC50 ([5]; Plasmodium falciparum, K1, 96 h, read-out: IC50 K1) [nM] | RI (resistance index) = IC50 K1/IC50 NF54 ([5]; this study) | IC50 ([6]; NF54, abstract, read-out: IC50 late stage Pf NF54 gametocytes) [nM] | IC50 ([6]; NF54 gametocytes, luciferase, 72 h, mean ± SEM, this study, read-out: Late stage IV-V (luc 72 h) IC50) [nM] | Fold change preference ratio LG to EG ([6]; this study) | Fold change preference ratio LG to EG ([6]; this study, listed as celastrol) | IC50 [7] [nM] | IC50 [8] [nM] | IC50 ([9]; Plasmodium falciparum, NF54 gametocytes, luciferase, 48 h, mean ± SEM, read-out: Immature stage II-III (luc 48 h) IC50) [nM] | Fold change preference ratio EG to LG [9, 12] | IC50 ([10]; Plasmodium falciparum, W2, 96 h, read-out: IC50 W2) [nM] | RI = IC50 W2/IC50 NF54 ([10]; this study) |
| --- | --- | --- | --- | --- | --- | --- | --- | --- | --- | --- | --- | --- | --- | --- | --- | --- | --- | --- | --- | --- |
| C[C@H]1[C@H](N2CCS(=O)(=O)CC2)O[C@@H]2O[C@@]3(C)CC[C@H]4[C@H](C)CC[C@@H]1[C@@]24OO3 [Artemisone, artemisone] | 1.2 | 1.01 ± 0.19 | 0.85 ^f | 260 to 95700 | 1.94 ± 0.11 | 21.9 | 1.6 ± 0.4 | 1.36^f | – | – | – | – | – | – | – | – | – | – | – | – |
| CC1=C(O)C(=O)C=C2C1=CC=C1[C@@]2(C)CC[C@@]2(C)[C@@H]3C[C@](C)(C(=O)O)CC[C@]3(C)CC[C@]12C [Celastrol, celastrol] | – | – | – | – | – | – | – | – | 700 ± 100 | 0.85 | 280 | 282 ± 96.2 | 4.1 | approximately 4 | 401 | 564 | 1160 | 0.2 | 500 ± 100 | 0.61 |
